18 compounds from patent publication US11753408B2, “Compounds and method for blocking transmission of malarial parasite” (The United States of America, as represented by the …, priority 2016, dated 2023) can be followed below.

Some results are limits rather than exact numbers.

Series [1] has as its system Stage III-V gametocytes (blood stage P. falciparum parasites). Kind of series: In vitro drug activity on gametocytes (AlamarBlue viability assay). The class given is cell-based, Plasmodium falciparum. To be noted: read-out: Gametocyte EC50. The procedure, abridged: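 P. falciparum 3D7 stage III–V gametocytes (also HB3, Dd2), enriched by 50 mM N-acetylglucosamine and Percoll gradient, seeded at 20,000/well with compound for 72 h at 37° C, 5% CO2. AlamarBlue then added for 24 h; viability read as fluorescence (Ex 525, Em 598 nm).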
Background: The colour change of resazurin is a common sign of viable cells or microbes.

Series [2] deals with Asexual parasites of P. falciparum strain 3D7. Kind of series: In vitro drug activity on asexual parasites (SYBR Green assay). The class given is cell-based, Plasmodium falciparum. The procedure, abridged: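 3D7 parasites at 0.5% parasitemia and 2% hematocrit were exposed to drugs (DMSO ≤0.5%) for 72 h under standard culture conditions, in duplicate. After freeze-thaw lysis, SYBR Green I lysis buffer was added for 30 min at room temperature, and fluorescence was read at 490/520 nm.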

Series [3] deals with mTOR (Homo sapiens, UniProt P42345). Kind of series: mTOR activity (no method described). The class given is biochemical.
The nature of series [4]: Microsomal stability (rat). It counts as in vitro ADME. As to conditions: rat microsomes.
Series [5] can be described thus: Solubility at pH 7.4. It counts as physicochemical.
A short description of series [6]: PAMPA permeability. It counts as in vitro ADME. (In general: PAMPA measures passive passage across an artificial lipid membrane.)

As usually defined, the EC50 is the concentration giving half of the maximal effect. Consider `O=C(c1ccc(-n2c(=O)ccc3cnc4ccc(-c5cccc(O)c5)cc4c32)cc1)N1CCOCC1` [Compound 128], for which the EC50 in series [1] amounted to 31.4 nM; in series [2], 6.05 nM. In addition, in series [3], the mTOR is reported as 310.6 nM. Further, the “Microsomal Stability (rat) T1/2” value in series [4] came out at 12.7 min. In series [5], the “Sol @ pH 7.4” value is 1.5 ug/mL. Also, the PAMPA Permeability in series [6] is 735 ×10⁻⁶ cm/s.

Turning to `O=C1NCc2cc(-c3ccc4ncc5ccc(=O)n(-c6ccc(C(=O)N7CCOCC7)cc6)c5c4c3)ccc21` [Compound 129], the values for the 50% effective concentration (EC50) in series [1] and in series [2] were 680 nM and 1440 nM, respectively. The mTOR in series [3] worked out at 856.7 nM. Also, the “Microsomal Stability (rat) T1/2” value in series [4] was more than 30.0 min. Moreover, the “Sol @ pH 7.4” value in series [5] came out at 20.3 ug/mL. In addition, the PAMPA Permeability in series [6] amounted to 5.4 ×10⁻⁶ cm/s.

As for `Nc1cccc(-c2ccc3ncc4ccc(=O)n(-c5ccc(C(=O)N6CCOCC6)cc5)c4c3c2)c1` [Compound 130], the EC50 in series [1] was determined as 72.2 nM; in series [2], 20.2 nM. In series [3], the mTOR is listed as 202.1 nM. The “Microsomal Stability (rat) T1/2” value in series [4] is listed as more than 30.0 min. In series [5], the “Sol @ pH 7.4” value turned out to be 9.2 ug/mL. In addition, the PAMPA Permeability in series [6] was determined as 467 ×10⁻⁶ cm/s.

With `O=C(O)c1cccc(-c2ccc3ncc4ccc(=O)n(-c5ccc(C(=O)N6CCOCC6)cc5)c4c3c2)c1` [Compound 131], the EC50 in series [1] was 17400 nM; in series [2], 17500 nM. The same compound gave a mTOR in series [3] of 1557 nM. In addition, in series [4], the “Microsomal Stability (rat) T1/2” value was more than 30.0 min. In addition, the “Sol @ pH 7.4” value in series [5] is more than 75.0 ug/mL. Further, the PAMPA Permeability in series [6] stood at 1.9 ×10⁻⁶ cm/s.

Turning to `CCN(CC)C(=O)c1ccc(-n2c(=O)ccc3cnc4ccc(-c5ccc(Cl)cc5)cc4c32)cc1` [Compound 132], the EC50 in series [1] turned out to be 344 nM; in series [2], 63.1 nM. This compound also displayed a mTOR in series [3] of 736.2 nM. The “Microsomal Stability (rat) T1/2” value in series [4] was less than 1.0 min. Further, the “Sol @ pH 7.4” value in series [5] is reported as less than 1.0 ug/mL. Moreover, in series [6], the PAMPA Permeability was 2320 ×10⁻⁶ cm/s.

With `N#Cc1cc(NC(=O)c2ccc(-n3c(=O)ccc4cnc5ccc(-c6ccc(Cl)cc6)cc5c43)cc2)ccc1F` [Compound 133], the results for the EC50 in series [1] and in series [2] were 10100 nM and 4000 nM, respectively. Further, the mTOR entry in series [3] is “inactive”. Further, in series [4], the “Microsomal Stability (rat) T1/2” value was more than 30.0 min. For the same compound, in series [5], the “Sol @ pH 7.4” value is reported as less than 1.0 ug/mL. In series [6], this compound showed a PAMPA Permeability of less than 5.4 ×10⁻⁶ cm/s.

For the compound `O=C(c1ccc(-n2c(=O)ccc3cnc4ccc(-c5ccc(Cl)cc5O)cc4c32)cc1)N1CCOCC1` [Compound 134], the EC50 was determined as 256 nM in series [1] and 72.7 nM in series [2]. This compound registered a mTOR in series [3] of 2007 nM. In series [4], the “Microsomal Stability (rat) T1/2” value is recorded as 10.5 min. In series [5], the “Sol @ pH 7.4” value is recorded as less than 1.0 ug/mL. In series [6], this compound registered a PAMPA Permeability of 142 ×10⁻⁶ cm/s.

With `Nc1cc(Cl)ccc1-c1ccc2ncc3ccc(=O)n(-c4ccc(C(=O)N5CCOCC5)cc4)c3c2c1` [Compound 136], the EC50 in series [1] amounted to 733 nM; in series [2], 94.5 nM. In addition, the mTOR in series [3] was 3591 nM. The “Microsomal Stability (rat) T1/2” value in series [4] worked out at 7.8 min. In series [5], the “Sol @ pH 7.4” value came out at 8.6 ug/mL. For the same compound, in series [6], the PAMPA Permeability is 1290 ×10⁻⁶ cm/s.

As for `O=C(c1ccc(-n2c(=O)ccc3cnc4ccc(-c5ccc(Cl)cc5)cc4c32)cc1)N1CC2CCC(C1)O2` [Compound 138], the EC50 in series [1] amounted to 277 nM; in series [2], 173 nM. In series [3], this compound gave a mTOR of 1278 nM. The “Microsomal Stability (rat) T1/2” value in series [4] was found to be 4.8 min. For the same compound, the “Sol @ pH 7.4” value in series [5] is given as less than 1.0 ug/mL. The PAMPA Permeability in series [6] stood at 891 ×10⁻⁶ cm/s.

Consider `O=C(c1ccc(-n2c(=O)ccc3cnc4ccc(-c5ccc(Cl)cc5)cc4c32)cc1)N1C2CCC1CC(O)C2` (stereo not drawn) [Compound 139], for which the concentration for a half-maximal effect (EC50) in series [1] worked out at 153 nM; in series [2] it was 20.6 nM. The mTOR in series [3] came to 405.1 nM. The “Microsomal Stability (rat) T1/2” value in series [4] was found to be 4.3 min. Further, in series [5], the “Sol @ pH 7.4” value is listed as less than 1.0 ug/mL. This compound also registered a PAMPA Permeability in series [6] of 238 ×10⁻⁶ cm/s.

Take `CN1CC2CC1CN2C(=O)c1ccc(-n2c(=O)ccc3cnc4ccc(-c5ccc(Cl)cc5)cc4c32)cc1` (stereo not drawn) [Compound 140]: the values for the concentration giving a half-maximal response (EC50) in series [1] and in series [2] were 272 nM and 59.2 nM, respectively. The mTOR in series [3] amounted to 6373 nM. Moreover, the “Microsomal Stability (rat) T1/2” value in series [4] is 9.6 min. In addition, the “Sol @ pH 7.4” value in series [5] is more than 77.0 ug/mL. Further, in series [6], the PAMPA Permeability stood at 1390 ×10⁻⁶ cm/s.

In the case of `CN1CC2CN(C(=O)c3ccc(-n4c(=O)ccc5cnc6ccc(-c7ccc(Cl)cc7)cc6c54)cc3)CC2C1` (stereo not drawn) [Compound 141], the values for the concentration for a half-maximal effect (EC50) in series [1] and in series [2] were 260 nM and 47.5 nM, respectively. This compound also had a mTOR in series [3] of 8043 nM. In series [4], the “Microsomal Stability (rat) T1/2” value was found to be 4.2 min. Besides, in series [5], the “Sol @ pH 7.4” value was 66.5 ug/mL. Moreover, the PAMPA Permeability in series [6] worked out at 1500 ×10⁻⁶ cm/s.

As for `CN(C(=O)c1ccc(-n2c(=O)ccc3cnc4ccc(-c5ccc(Cl)cc5)cc4c32)cc1)C1CC1` [Compound 143], the 50% effective concentration (EC50) in series [1] stood at 242 nM; in series [2], 63.1 nM. The mTOR in series [3] is on record as 671.6 nM. Besides, in series [4], the “Microsomal Stability (rat) T1/2” value stood at 1.6 min. In series [5], the “Sol @ pH 7.4” value is less than 1.0 ug/mL. This compound displayed a PAMPA Permeability in series [6] of 1420 ×10⁻⁶ cm/s.

`Cc1cc(-c2ccc3ncc4ccc(=O)n(-c5ccc(C(=O)N6CCOCC6)cc5)c4c3c2)ccc1Cl` [Compound 144]: the figures for the EC50 in series [1] and in series [2] were 1760 nM and 368 nM, respectively. For the same compound, in series [3], the mTOR is recorded as 2083 nM. Also, the “Microsomal Stability (rat) T1/2” value in series [4] is given as 4.1 min. For the same compound, in series [5], the “Sol @ pH 7.4” value is on record as less than 1.0 ug/mL. Besides, in series [6], the PAMPA Permeability came out at 1470 ×10⁻⁶ cm/s.

As to `COc1cc(-c2ccc3ncc4ccc(=O)n(-c5ccc(C(=O)N6CCOCC6)cc5)c4c3c2)ccc1Cl` [Compound 145], the figures for the concentration giving a half-maximal response (EC50) in series [1] and in series [2] were 266 nM and 60.6 nM, respectively. The mTOR in series [3] is 1214 nM. For the same compound, the “Microsomal Stability (rat) T1/2” value in series [4] was 4.9 min. Also, the “Sol @ pH 7.4” value in series [5] is recorded as less than 1.0 ug/mL. In series [6], the PAMPA Permeability amounted to 363 ×10⁻⁶ cm/s.

For `CN(C)C(=O)c1cc(-c2ccc3ncc4ccc(=O)n(-c5ccc(C(=O)N6CCOCC6)cc5)c4c3c2)ccc1Cl` [Compound 146], the half-maximal effective concentration (EC50) in series [1] came out at 1810 nM; in series [2], 536 nM. For the same compound, the mTOR in series [3] was found to be 5732 nM. In addition, in series [4], the “Microsomal Stability (rat) T1/2” value came out at 9.6 min. Further, in series [5], the “Sol @ pH 7.4” value is 63 ug/mL. In series [6], this compound registered a PAMPA Permeability of 98.3 ×10⁻⁶ cm/s.

For `O=C(c1ccc(-n2c(=O)ccc3cnc4ccc(-c5ccc(Cl)c(C(=O)N6CCOCC6)c5)cc4c32)cc1)N1CCOCC1` [Compound 147], the values for the EC50 in series [1] and in series [2] were 18300 nM and 4810 nM, respectively. In series [3], this compound came in with a mTOR of 21220 nM. Moreover, in series [4], the “Microsomal Stability (rat) T1/2” value is recorded as 3.1 min. In addition, the “Sol @ pH 7.4” value in series [5] is more than 90.0 ug/mL. Moreover, in series [6], the PAMPA Permeability stood at 109 ×10⁻⁶ cm/s.

As for `N#Cc1cc(-c2ccc3ncc4ccc(=O)n(-c5ccc(C(=O)N6CCOCC6)cc5)c4c3c2)ccc1Cl` [Compound 153], the 50% effective concentration (EC50) in series [1] was found to be 52.9 nM; in series [2], 127 nM. Also, the mTOR in series [3] was 18360 nM. In addition, the “Microsomal Stability (rat) T1/2” value in series [4] is 9.4 min. Further, the “Sol @ pH 7.4” value in series [5] is listed as less than 1.0 ug/mL. In series [6], this compound came in with a PAMPA Permeability of 57.9 ×10⁻⁶ cm/s.
